Data taken from patent US20120225062A1 (priority 2011, published 2012).
pEC50, pIC50: −log10 of the molar value.

What was measured:
[1] = molecular target: Pim 3 (Homo sapiens, UniProt Q86V86); assay: Pim 3 AlphaScreen assay (high ATP)
Procedure: (§1) The activity of Pim 1, Pim 2, & Pim 3 is measured using a homogeneous bead based system quantifying the amount of phosphorylated peptide substrate resulting from kinase-catalyzed phosphoryl transfer to a peptide substrate. Compounds to be tested are dissolved in 100% DMSO and directly distributed to a white 384-well plate at 0.25 μl per well. […] This is followed by the addition of 5 μl/well of Pim 1, Pim 2 or Pim 3 kinase in assay buffer (concentrations described below). Final assay concentrations (described below) are in 2.5% DMSO. The reactions are performed for ˜2 hours, then stopped by the addition of 10 μl of 0.75 μg/ml anti-phospho Ser/Thr antibody (Cell Signaling), 10 μg/ml Protein A AlphaScreen beads (Perkin Elmer), and 10 μg/ml streptavidin coated AlphaScreen beads in stop/detection buffer (50 mM EDTA, 95 mM Tris, pH=7.5, 0.01% Tween-20). The stopped reactions are incubated overnight in the dark. The phosphorylated peptide is detected via an oxygen anion initiated chemiluminescence/fluorescence cascade using the Envision plate reader (Perkin Elmer).

[2] = system: KMS11 (human myeloma cell line); assay: Cell Proliferation Assay (CellTiter-Glo, 3 days); format: cell-based; conditions: KMS-11, 72 h, KMS11-luc cells
In short: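 KMS11 myeloma cells, 2000 per well in IMDM with 10% FBS, exposed to compound for 3 days at 37° C. Viability read by CellTiter-Glo luminescence; EC50 derived.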

[3] = molecular target: Pim 1 (Homo sapiens, UniProt P11309); assay: Pim 1 AlphaScreen assay (high ATP)
Pim 1, sequence (P11309 whole entry): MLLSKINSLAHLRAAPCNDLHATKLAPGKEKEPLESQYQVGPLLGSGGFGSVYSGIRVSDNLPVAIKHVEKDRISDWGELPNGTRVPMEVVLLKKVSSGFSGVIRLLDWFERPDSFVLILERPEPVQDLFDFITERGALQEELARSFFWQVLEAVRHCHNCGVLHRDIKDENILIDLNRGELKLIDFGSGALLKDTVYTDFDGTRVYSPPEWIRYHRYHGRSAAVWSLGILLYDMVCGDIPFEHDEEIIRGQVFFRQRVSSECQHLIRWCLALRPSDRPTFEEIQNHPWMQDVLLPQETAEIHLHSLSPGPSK
Procedure: as §1

[4] = molecular target: Pim 2 (Homo sapiens, UniProt Q9P1W9); assay: Pim 2 AlphaScreen assay (high ATP)
Pim 2, sequence (Q9P1W9 whole entry): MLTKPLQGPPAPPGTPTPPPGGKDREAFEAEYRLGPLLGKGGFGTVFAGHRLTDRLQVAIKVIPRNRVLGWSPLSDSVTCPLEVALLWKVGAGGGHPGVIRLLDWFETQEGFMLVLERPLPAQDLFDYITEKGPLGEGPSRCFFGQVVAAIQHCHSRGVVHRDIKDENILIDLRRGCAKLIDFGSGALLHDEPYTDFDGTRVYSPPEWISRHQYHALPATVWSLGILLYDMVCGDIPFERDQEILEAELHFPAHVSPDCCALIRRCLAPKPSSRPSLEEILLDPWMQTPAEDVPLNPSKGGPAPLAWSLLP

Structure (SMILES)	pIC50 [1]	pEC50 [2]	pIC50 [3]	pIC50 [4]
C[C@H]1CN(c2ccncc2NC(=O)c2ccc(F)c(-c3c(F)cc(O[C@@H]4CCCOC4)cc3F)n2)C[C@@H](N)[C@@H]1O [Example 105, N-(4-((3R,4R,5S)-3-amino-4-hydroxy-5-methylpiperidin-1-yl)pyridin-3-yl)-6-(2,6-difluoro-4-((R)-tetrahydro-2H-pyran-3-yloxy)phenyl)-5-fluoropicolinamide]	9.77	7.02	11.00	9.19
C[C@@H]1C[C@H](N)C[C@H](c2ccncc2NC(=O)c2ccc(F)c(-c3c(F)cc4c(c3F)OCC4)n2)C1 [Example 179, N-(4-((1R,3S,5S)-3-amino-5-methylcyclohexyl)pyridin-3-yl)-6-(5,7-difluoro-2,3-dihydrobenzofuran-6-yl)-5-fluoropicolinamide]	9.52	7.11	11.00	9.29
Cc1cc(F)c(-c2nc(C(=O)Nc3cnccc3[C@H]3C[C@@H](N)C[C@@H](C(C)C)C3)ccc2F)c(F)c1 [Example 123, N-(4-((1R,3S,5S)-3-amino-5-isopropylcyclohexyl)pyridin-3-yl)-6-(2,6-difluoro-4-methylphenyl)-5-fluoropicolinamide]	9.24	7.23	10.70	9.10
C[C@@H]1C[C@H](N)C[C@H](c2ccncc2NC(=O)c2ccc(F)c(-c3c(F)cc(C(C)(C)C#N)cc3F)n2)C1 [Example 164, N-(4-((1R,3S,5S)-3-amino-5-methylcyclohexyl)pyridin-3-yl)-6-(4-(2-cyanopropan-2-yl)-2,6-difluorophenyl)-5-fluoropicolinamide]	8.69	7.06	10.70	8.67
C[C@H]1CN(c2ccncc2NC(=O)c2ccc(F)c(-c3c(F)cc(S(C)(=O)=O)cc3F)n2)C[C@@H](N)[C@@H]1O [Example 16, N-(4-((3R,4R,5S)-3-amino-4-hydroxy-5-methylpiperidin-1-yl)pyridin-3-yl)-6-(2,6-difluoro-4-(methylsulfonyl)phenyl)-5-fluoropicolinamide]	8.58	7.43	10.10	8.68
COCCc1cc(F)c(-c2nc(C(=O)Nc3cnccc3N3C[C@@H](N)[C@H](O)[C@@H](C)C3)ccc2F)c(F)c1 [Example 109, N-(4-((3R,4R,5S)-3-amino-4-hydroxy-5-methylpiperidin-1-yl)pyridin-3-yl)-6-(2,6-difluoro-4-(2-methoxyethyl)phenyl)-5-fluoropicolinamide]	9.85	7.55	11.00	9.42
COc1cc(F)c(-c2nc(C(=O)Nc3cnccc3N3C[C@@H](N)[C@H](O)[C@@H](C)C3)ccc2F)c(F)c1 [Example 15, N-(4-((3R,4R,5S)-3-amino-4-hydroxy-5-methylpiperidin-1-yl)pyridin-3-yl)-6-(2,6-difluoro-4-methoxyphenyl)-5-fluoropicolinamide]	9.46	7.68	10.70	8.94
C[C@@H]1C[C@H](N)C[C@H](c2ccncc2NC(=O)c2cccc(-c3c(F)cc(C4CCOCC4)cc3F)n2)C1 [Example 192, N-(4-((1R,3S,5S)-3-amino-5-methylcyclohexyl)pyridin-3-yl)-6-(2,6-difluoro-4-(tetrahydro-2H-pyran-4-yl)phenyl)picolinamide]	8.97	6.94	10.70	8.46
C[C@H]1CN(c2ccncc2NC(=O)c2ccc(F)c(-c3c(F)cc(C4(O)CC4)cc3F)n2)C[C@@H](N)[C@@H]1O [Example 103, N-(4-((3R,4R,5S)-3-amino-4-hydroxy-5-methylpiperidin-1-yl)pyridin-3-yl)-6-(2,6-difluoro-4-(1-hydroxycyclopropyl)phenyl)-5-fluoropicolinamide]	9.43	7.68	10.70	9.17
C[C@H]1CN(c2ccncc2NC(=O)c2ccc(F)c(-c3c(F)cc(CCO)cc3F)n2)C[C@@H](N)[C@@H]1O [Example 35, N-(4-((3R,4R,5S)-3-amino-4-hydroxy-5-methylpiperidin-1-yl)pyridin-3-yl)-6-(2,6-difluoro-4-(2-hydroxyethyl)phenyl)-5-fluoropicolinamide]	9.44	8.15	10.52	8.96

Second part, the molecule after the results:

pIC50 [1]	pEC50 [2]	pIC50 [3]	pIC50 [4]	Structure (SMILES)
9.28	7.40	10.52	8.86	C[C@H]1C[C@@H](c2ccncc2NC(=O)c2nc(-c3c(F)cc(C4COC4)cc3F)c(F)cc2N)C[C@@H](N)[C@@H]1O [Example 98, 3-amino-N-(4-((1R,3R,4R,5S)-3-amino-4-hydroxy-5-methylcyclohexyl)pyridin-3-yl)-6-(2,6-difluoro-4-(oxetan-3-yl)phenyl)-5-fluoropicolinamide]
9.51	6.80	10.70	8.99	C[C@H]1CN(c2ccncc2NC(=O)c2nc(-c3c(F)cc(C4COC4)cc3F)c(F)cc2N)C[C@@H](N)[C@@H]1O [Example 107, 3-amino-N-(4-((3R,4R,5S)-3-amino-4-hydroxy-5-methylpiperidin-1-yl)pyridin-3-yl)-6-(2,6-difluoro-4-(oxetan-3-yl)phenyl)-5-fluoropicolinamide]
8.53	6.70	9.89	7.49	COCCOc1ccc(F)c(-c2nc(C(=O)Nc3cnccc3[C@H]3C[C@@H](N)[C@H](O)[C@@H](C)C3)ccc2F)c1F [Example 18, N-(4-((1R,3R,4R,5S)-3-amino-4-hydroxy-5-methylcyclohexyl)pyridin-3-yl)-6-(2,6-difluoro-3-(2-methoxyethoxy)phenyl)-5-fluoropicolinamide]
9.15	7.72	11.00	9.14	COC1(c2cc(F)c(-c3nc(C(=O)Nc4cnccc4[C@@H]4C[C@H](C)C[C@H](N)C4)c(N)cc3F)c(F)c2)COC1 [Example 90, 3-amino-N-(4-((1R,3S,5S)-3-amino-5-methylcyclohexyl)pyridin-3-yl)-6-(2,6-difluoro-4-(3-methoxyoxetan-3-yl)phenyl)-5-fluoropicolinamide]
7.53	5.61	9.59	7.23	Cc1noc(C)c1-c1cc(F)c(-c2nc(C(=O)Nc3cnccc3[C@H]3C[C@@H](N)[C@H](O)[C@@H](C)C3)ccc2F)c(F)c1 [Example 173, N-(4-((1R,3R,4R,5S)-3-amino-4-hydroxy-5-methylcyclohexyl)pyridin-3-yl)-6-(4-(3,5-dimethylisoxazol-4-yl)-2,6-difluorophenyl)-5-fluoropicolinamide]
9.89	8.40	11.00	9.14	C[C@@H]1C[C@H](N)C[C@H](c2ccncc2NC(=O)c2nc(-c3c(F)cc(C4(O)COC4)cc3F)c(F)cc2N)C1 [Example 221, 3-amino-N-(4-((1R,3S,5S)-3-amino-5-methylcyclohexyl)pyridin-3-yl)-6-(2,6-difluoro-4-(3-hydroxyoxetan-3-yl)phenyl)-5-fluoropicolinamide]
9.44	6.82	11.00	9.20	CC(C)[C@@H]1C[C@H](N)C[C@H](c2ccncc2NC(=O)c2ccc(F)c(-c3c(F)cc(C4CCOCC4)cc3F)n2)C1 [Example 139, N-(4-((1R,3S,5S)-3-amino-5-isopropylcyclohexyl)pyridin-3-yl)-6-(2,6-difluoro-4-(tetrahydro-2H-pyran-4-yl)phenyl)-5-fluoropicolinamide]
9.03	7.64	10.70	8.77	COCCc1cc(F)c(-c2nc(C(=O)Nc3cnccc3[C@@H]3C[C@H](C)C[C@H](N)C3)ccc2F)c(F)c1 [Example 67, N-(4-((1R,3S,5S)-3-amino-5-methylcyclohexyl)pyridin-3-yl)-6-(2,6-difluoro-4-(2-methoxyethyl)phenyl)-5-fiuoropicolinamide]
9.28	7.52	11.00	8.98	C[C@@H]1C[C@H](N)C[C@H](c2ccncc2NC(=O)c2ccc(F)c(-c3c(F)cc(C4CCOCC4)cc3F)n2)C1 [Example 82, N-(4-((1R,3S,5S)-3-amino-5-methylcyclohexyl)pyridin-3-yl)-6-(2,6-difluoro-4-(tetrahydro-2H-pyran-4-yl)phenyl)-5-fluoropicolinamide]
9.10	6.86	10.52	8.56	C[C@H]1C[C@@H](c2ccncc2NC(=O)c2ccc(F)c(-c3c(F)cc(OCC4CC4)cc3F)n2)C[C@@H](N)[C@@H]1O [Example 42, N-(4-((1R,3R,4R,5S)-3-amino-4-hydroxy-5-methylcyclohexyl)pyridin-3-yl)-6-(4-(cyclopropylmethoxy)-2,6-difluorophenyl)-5-fluoropicolinamide]
8.62	6.49	10.10	8.48	C[C@H]1C[C@@H](c2ccncc2NC(=O)c2ccc(F)c(-c3c(F)cc(COC4CCOCC4)cc3F)n2)C[C@@H](N)[C@@H]1O [Example 138, N-(4-((1R,3R,4R,5S)-3-amino-4-hydroxy-5-methylcyclohexyl)pyridin-3-yl)-6-(2,6-difluoro-4-((tetrahydro-2H-pyran-4-yloxy)methyl)phenyl)-5-fluoropicolinamide]
9.62	7.92	11.00	8.97	C[C@@H]1C[C@H](N)C[C@H](c2ccncc2NC(=O)c2ccc(F)c(-c3c(F)cc(O[C@H]4CCCOC4)cc3F)n2)C1 [Example 79, N-(4-((1R,3S,5S)-3-amino-5-methylcyclohexyl)pyridin-3-yl)-6-(2,6-difluoro-4-((S)-tetrahydro-2H-pyran-3-yloxy)phenyl)-5-fluoropicolinamide]
